Test results as given in patent US9321764B2, “Dihydro-pyrrolopyridinone inhibitors” (AbbVie Inc., priority 2013, dated 2016).

Assays:
BRD4 (BDI_K57-E168) = molecular target: T1, BRD4 (BDI_K57-E168) (Homo sapiens, UniProt O60885); assay: TR-FRET bromodomain binding assay, first bromodomain of BRD4; conditions: His-tagged BD1, 100 nM Alexa647 probe; TR-FRET protocol A-E given per row
T1 construct: BD1: amino acids K57-E168; made in house
Method: (§1) A time-resolved fluorescence resonance energy transfer (TR-FRET) assay was used to determine the affinities of compounds of the Examples listed in Table 1 for each bromodomain of BRD4. His-tagged first (BD1: amino acids K57-E168) and second (BD2: amino acids E352-E168) bromodomains of BRD4 were expressed and purified. An Alexa647-labeled BET-inhibitor was used as the fluorescent probe in the assay.
(§2) Compound dilution series were prepared in DMSO via an approximately 3-fold serial dilution from one of the following:
Assay method A: 250 μM-4.2 nM
Assay method B: 0.47 mM to 7.8 nM
Assay method C: 500 μM-8.5 nM
(§3) Assay method D: 2.5 mM-800 nM
Assay method E: 0.047 mM to 0.78 nM or 5-fold serial dilution from Assay method D
For Assay methods A, C, and D: Compounds were then diluted 6:100 in assay buffer (20 mM Sodium Phosphate, pH 6.0, 50 mM NaCl, 1 mM Ethylenediaminetetraacetic acid, 0.01% Triton X-100, 1 mM DL-Dithiothreitol) to yield 3× working solutions. Six microliters (μL) of the working solution was then transferred to white, low-volume assay plates (Costar #3673). A 1.5× assay mixture containing His-tagged bromodomain, Europium-conjugated anti-His antibody (Invitrogen PV5596) and the Alexa-647-conjugated probe molecule was also prepared. Twelve μL of this solution were added to the assay plate to reach a final volume of 18 μL.
For Assay methods B and E: Compound dilutions were added directly into white, low-volume assay plates (Perkin Elmer Proxiplate 384 Plus #6008280) using a Labcyte Echo in conjunction with Labcyte Access and Thermo Multidrop CombinL robotics. Compounds were then suspended in eight microliters (μL) of assay buffer (20 mM Sodium Phosphate, pH 6.0, 50 mM NaCl, 1 mM Ethylenediaminetetraacetic acid disodium salt dihydrate, 0.01% Triton X-100, 1 mM DL-Dithiothreitol) containing His-tagged bromodomain, Europium-conjugated anti-His antibody (Invitrogen PV5596) and Alexa-647-conjugated probe.
The final concentration of 1× assay mixture for assay methods A, B, C, D, and E contains 2% DMSO, 8 nM His-tagged bromodomain, 1 nM Europium-conjugated anti-His-tag antibody and 100 nM or 30 nM probe (for BDI or BDII, respectively) and compound concentration in the range of: 5 μM-85 pM for method A, 9.19 μM 150 pM for method B, 10 μM-169 pM for method C, 50 μM-16 nM for method D, and 0.92 μM-15 pM for method E.
After a one-hour equilibration at room temperature, TR-FRET ratios were determined using an Envision multilabel plate reader (Ex 340, Em 495/520).
TR-FRET data were normalized to the means of 24 no-compound controls (“high”) and 8 controls containing 1 μM un-labeled probe (“low”). Percent inhibition was plotted as a function of compound concentration and the data were fit with the 4 parameter logistic equation to obtain IC50s Inhibition constants (Ki) were calculated from the IC50s, probe Kd and probe concentration. Typical Z′ values were between 0.65 and 0.75. The minimum significant ratio was determined to evaluate assay reproducibility (Eastwood et al., (2006) J Biomol Screen, 11: 253-261). The MSR was determined to be 2.03 for BDI and 1.93 for BDII, and a moving MSR (last six run MSR overtime) for both BDI and BDII was typically <3.

BRD4 (BDII_E352-M457) = molecular target: T2, BRD4 (BDII_E352-M457) (Homo sapiens, UniProt O60885); assay: TR-FRET bromodomain binding assay, second bromodomain of BRD4; conditions: His-tagged BD2, 30 nM Alexa647 probe; TR-FRET protocol A-E given per row
T2 construct: proliferation; Protocol; made in house
Method: as §1, §2, §3
For Assay methods A, C, and D: Compounds were then diluted 6:100 in assay buffer (20 mM Sodium Phosphate, pH 6.0, 50 mM NaCl, 1 mM Ethylenediaminetetraacetic acid, 0.01% Triton X-100, 1 mM DL-Dithiothreitol) to yield 3× working solutions. […] Twelve μL of this solution were added to the assay plate to reach a final volume of 18 μL.
TR-FRET data were normalized to the means of 24 no-compound controls (“high”) and 8 controls containing 1 μM un-labeled probe (“low”). Percent inhibition was plotted as a function of compound concentration and the data were fit with the 4 parameter logistic equation to obtain IC50s Inhibition constants (Ki) were calculated from the IC50s, probe Kd and probe concentration. Typical Z′ values were between 0.65 and 0.75.

Row | Structure (SMILES) | Ki (BRD4 (BDI_K57-E168)) | Ki (BRD4 (BDII_E352-M457))
1 | Cn1cc(-c2cc(NC(=O)Cn3cc(-c4ccccc4F)cn3)ccc2Oc2ccc(F)cc2F)c2cc[nH]c(=O)c21 [Example 165, N-[4-(2,4-difluorophenoxy)-3-(1-methyl-7-oxo-6,7-dihydro-1H-pyrrolo[2,3-c]pyridin-3-yl)phenyl]-2-[4-(2-fluorophenyl)-1H-pyrazol-1-yl]acetamide] | 214 nM | 105 nM
2 | Cn1cc(-c2cc(NC(=O)Cc3cc(Cl)ccc3F)ccc2Oc2ccc(F)cc2F)c2cc[nH]c(=O)c21 [Example 159, 2-(5-chloro-2-fluorophenyl)-N-[4-(2,4-difluorophenoxy)-3-(1-methyl-7-oxo-6,7-dihydro-1H-pyrrolo[2,3-c]pyridin-3-yl)phenyl]acetamide] | 62.4 nM | 59.6 nM
3 | Cc1c[nH]c(=O)c2c1c(-c1cc(S(C)(=O)=O)ccc1Oc1ccc(F)cc1F)cn2C [Example 123, 3-[2-(2,4-difluorophenoxy)-5-(methylsulfonyl)phenyl]-1,4-dimethyl-1,6-dihydro-7H-pyrrolo[2,3-c]pyridin-7-one] | 130 nM | 428 nM
4 | CCOC(=O)c1cc2c(-c3cn(C)c4c(=O)[nH]ccc34)c(OCC3CC3)ccc2[nH]1 [Example 99, ethyl 5-(cyclopropylmethoxy)-4-(1-methyl-7-oxo-6,7-dihydro-1H-pyrrolo[2,3-c]pyridin-3-yl)-1H-indole-2-carboxylate] | > 2380 nM | 2430 nM
5 | CNC(=O)c1cc2c(-c3cn(C)c4c(=O)[nH]ccc34)c(OCC3CC3)ccc2[nH]1 [Example 107, 5-(cyclopropylmethoxy)-N-methyl-4-(1-methyl-7-oxo-6,7-dihydro-1H-pyrrolo[2,3-c]pyridin-3-yl)-1H-indole-2-carboxamide] | > 2380 nM | 407 nM
6 | Cn1cc(-c2cc(S(C)(=O)=O)ccc2OCCc2cccs2)c2cc[nH]c(=O)c21 [Example 39, 1-methyl-3-{5-(methylsulfonyl)-2-[2-(thiophen-2-yl)ethoxy]phenyl}-1,6-dihydro-7H-pyrrolo[2,3-c]pyridin-7-one] | 63 nM | 51 nM
7 | Cn1cc(-c2cc(S(C)(=O)=O)ccc2OCCCC2CCCC2)c2cc[nH]c(=O)c21 [Example 66, 3-[2-(3-cyclopentylpropoxy)-5-(methylsulfonyl)phenyl]-1-methyl-1,6-dihydro-7H-pyrrolo[2,3-c]pyridin-7-one] | 219 nM | 741 nM
8 | CC(C)CCNCc1ccc(Oc2ccc(F)cc2F)c(-c2cn(C)c3c(=O)[nH]ccc23)c1 [Example 117, 3-[2-(2,4-difluorophenoxy)-5-{[(3-methylbutyl)amino]methyl}phenyl]-1-methyl-1,6-dihydro-7H-pyrrolo[2,3-c]pyridin-7-one] | 776 nM | 750 nM

Molecules with a lower Ki (BRD4 (BDI_K57-E168)), results first:

Row | Ki (BRD4 (BDI_K57-E168)) | Ki (BRD4 (BDII_E352-M457)) | Structure (SMILES)
9 | 33 nM | 124 nM | Cn1cc(-c2cc(S(C)(=O)=O)ccc2NCC2CCCCC2)c2cc[nH]c(=O)c21 [Example 47, 3-{2-[(cyclohexylmethyl)amino]-5-(methylsulfonyl)phenyl}-1-methyl-1,6-dihydro-7H-pyrrolo[2,3-c]pyridin-7-one]
10 | 25.3 nM | 90.1 nM | Cn1cc(-c2cc(N)ccc2Oc2ccc(F)cc2F)c2cc[nH]c(=O)c21 [Example 146, 3-[5-amino-2-(2,4-difluorophenoxy)phenyl]-1-methyl-1,6-dihydro-7H-pyrrolo[2,3-c]pyridin-7-one]
11 | 56 nM | 53 nM | CCS(=O)(=O)c1ccc(Oc2ccc(C#N)cc2OC)c(-c2cn(C)c3c(=O)[nH]ccc23)c1 [Example 80, 4-[4-(ethylsulfonyl)-2-(1-methyl-7-oxo-6,7-dihydro-1H-pyrrolo[2,3-c]pyridin-3-yl)phenoxy]-3-methoxybenzonitrile]
12 | 3.18 nM | 10.9 nM | CCS(=O)(=O)Nc1ccc(Oc2ccc(F)cc2F)c(-c2cn(C)c3c(=O)[nH]c(C(=O)NCCN4CCCCC4)cc23)c1 [Example 198, 3-{2-(2,4-difluorophenoxy)-5-[(ethylsulfonyl)amino]phenyl}-1-methyl-7-oxo-N-[2-(piperidin-1-yl)ethyl]-6,7-dihydro-1H-pyrrolo[2,3-c]pyridine-5-carboxamide]
